The results in this text go back to US5004780A, “Cyclic monoperoxyketal” (priority 1988, dated 1991).

What all share (assay type): physicochemical
Data set [1] can be described thus: Thermal decomposition product of peroxyketal in cumene (gas chromatography). As for the experimental part:
Each of the thermal decomposition reaction solutions of Example 7 and Comparative example 1 was analyzed by means of a gas chromatography to measure the thermal decomposition products. The number of mols of the decomposition products per 1 mol of each of the decomposed peroxyketals was calculated. The obtained results are shown in the following Table 3 as Example 16 and Comparative example 7.

A short description of data set [2]: Thermal decomposition of peroxyketal in cumene at 100° C. Conditions: 0.05 mol/l; for Half-life period: 50000 µM. As to the method: (§1) A 0.05 mol/l cumene solution of each of the cyclic monoperoxyketals of the present invention produced in Examples 1-6 and the cyclic bisperoxyketals produced in the same manner as described in Examples 1-6 was prepared. A given amount of each sample solution was sampled into a glass ampule, and the sample solution was deaerated by a freezing method, and then the ampule was sealed under vacuum. Then, the ampules were put in a thermostat kept at 100° C., and taken out from the thermostate every predetermined times, and the concentration of peroxyketal was measured by a gas chromatography or liquid chromatography. The decomposition rate constant and half-life period of a sample peroxyketal were calculated from the disappearing rate of the peroxyketal. The obtained results are shown in the following Table 1 as Examples 6-12 and Comparative examples 1-6.

A short description of data set [3]: Solubility of peroxyketal in unsaturated polyester resin. Set-up: key: .circle.: Complete dissolving; Δ: Fairly long time was required in dissolving; X: Incomplete dissolving (white turbid).
Data set [4] is described as follows: Amounts of ketone and alcohol formed by the thermal decomposition of peroxyketal in cumene. Conditions: 100° C. As to the method: The amount of ketone and that of alcohol contained in each of the thermal decomposition solutions obtained in Examples 6-12 and Comparative examples 1-6 were measured by means of a gas chromatography. The numbers of mols of ketone and alcohol per 1 mol of each of decomposed cyclic monoperoxyketal or cyclic bisperoxyketal were measured. The obtained results are shown in the following Table 4 as Examples 17-22 and Comparative examples 8-13.

Data set [5] is described as follows: Thermal decomposition of 1-methoxy-1-(1,1-dimethylethylperoxy)cyclohexane at 100° C. in n-hexane, n-dodecane or n-hexadecane. Conditions: for Half-life period: 50000 µM. As for the experimental part:
as §1
Thermal decomposition of 1-methoxy-1-(1,1-dimethylethylperoxy)cyclohexane at 100° C. was carried out in the same manner as described in Example 7, except that n-hexane, n-dodecane or n-hexadecane was used as a solvent in place of cumene, and the thermal decomposition rate constant and half-life period of the cyclic monoperoxyketal in these solvents were measured.

Where [6] appears, read: n-hexadecane, viscosity 0.900 cp.

On to `CC(C)(C)OOC1(OOC(C)(C)C)CCCCC1` [Comparative example 1, 1,1-bis(1,1-dimethylethylperoxy)cyclohexane, reference compound], for which the “Thermal decomposition product: 1,1-dimethylperoxyhexanoate” value in data set [1] (100° C., 1,1-dimethylperoxyhexanoate) is reported as 0.35 Number of mols per 1 mol of de. Moreover, in data set [1] (100° C.), the “Thermal decomposition product: biscumyl” value is reported as 0.69 Number of mols per 1 mol of de and the “Thermal decomposition product: t-butanol” value was 1.06 Number of mols per 1 mol of de. In addition, in data set [2], the Decomposition rate constant was 5.06 ×10^5 (1/sec) and the Half-life period came out at 3.81 h. In addition, the Solubility entry in data set [3] is reported as “.circle”. In data set [4], the “Ratio of ketone to alcohol” value is 0.01, the “Thermal decomposition product: Alcohol” value is listed as 1.37 mols per 1 mol of decomposed p and the “Thermal decomposition product: Ketone” value is given as 0.02 mols per 1 mol of decomposed p.

For the molecule `COC1(OOC(C)(C)C)CCCCC1` [Example 7, 1-methoxy-1-(1,1-dimethylethylperoxy)cyclohexane], in data set [1] (100° C., acetone), the “Thermal decomposition product: acetone” value is on record as 0.10 Number of mols per 1 mol of de. Further, in data set [1] (100° C.), the “Thermal decomposition product: biscumyl” value was 0.50 Number of mols per 1 mol of de and the “Thermal decomposition product: t-butanol” value was 0.47 Number of mols per 1 mol of de. In addition, in data set [1] (100° C., methyl hexanoate), the “Thermal decomposition product: methyl hexanoate” value is recorded as 0.59 Number of mols per 1 mol of de. Moreover, in data set [2], the Decomposition rate constant is given as 6.79 ×10^5 (1/sec) and the Half-life period worked out at 2.84 h. Moreover, the Solubility entry in data set [3] is “.circle”. Besides, in data set [5] (n-dodecane, viscosity 0.520 cp), the Decomposition rate constant is 4.71 ×10^5 (1/sec) and the Half-life period was 4.09 h. In data set [5] (setting [6]), the Decomposition rate constant is given as 4.23 ×10^5 (1/sec) and the Half-life period was 4.55 h. Moreover, in data set [5] (n-hexane, viscosity 0.168 cp), the Decomposition rate constant was 5.13 ×10^5 (1/sec) and the Half-life period is 3.75 h. Besides, in data set [4], the “Ratio of ketone to alcohol” value is 0.21, the “Thermal decomposition product: Alcohol” value is listed as 0.47 mols per 1 mol of decomposed p and the “Thermal decomposition product: Ketone” value is 0.10 mols per 1 mol of decomposed p.

Consider `CCC(C)(C)OOC1(OC)CCCCC1` [Example 8, 1-methoxy-1-(1,1-dimethylpropylperoxy)cyclohexane], for which, in data set [2], the Decomposition rate constant is reported as 10.58 ×10^5 (1/sec) and the Half-life period was found to be 1.82 h. Also, the Solubility result in data set [3] is reported as “.circle”. Moreover, in data set [4], the “Ratio of ketone to alcohol” value turned out to be 5.71, the “Thermal decomposition product: Alcohol” value was 0.14 mols per 1 mol of decomposed p and the “Thermal decomposition product: Ketone” value is 0.80 mols per 1 mol of decomposed p.

Regarding `CCCC(C)(C)OOC1(OC)CCCCC1` [Example 9, 1-methoxy-1-(1,1-dimethylbutylperoxy)cyclohexane], in data set [2], the Decomposition rate constant was 11.20 ×10^5 (1/sec) and the Half-life period is 1.72 h. In addition, in data set [3], the Solubility entry is reported as “.circle”. Also, in data set [4], the “Ratio of ketone to alcohol” value is 2.26, the “Thermal decomposition product: Alcohol” value is 0.31 mols per 1 mol of decomposed p and the “Thermal decomposition product: Ketone” value is recorded as 0.70 mols per 1 mol of decomposed p.

On to `COC1(OOC(C)(C)CC(C)(C)C)CCCCC1` [Example 10, 1-methoxy-1-(1,1,3,3-tetramethylbutylperoxy)cyclohexane], for which, in data set [2], the Decomposition rate constant was 28.40 ×10^5 (1/sec) and the Half-life period was found to be 0.68 h. Also, the Solubility result in data set [3] is recorded as “.circle”. In data set [4], the “Ratio of ketone to alcohol” value amounted to 79.0, the “Thermal decomposition product: Alcohol” value was 0.01 mols per 1 mol of decomposed p and the “Thermal decomposition product: Ketone” value is 0.79 mols per 1 mol of decomposed p.

Consider `COC1(OOC(C)(C)c2ccccc2)CCCCC1` [Example 11, 1-methoxy-1-(1-methyl-1-phenylethylperoxy)cyclohexane], for which, in data set [2], the Decomposition rate constant is recorded as 11.32 ×10^5 (1/sec) and the Half-life period worked out at 1.70 h. Further, the Solubility entry in data set [3] is “.circle”. In data set [4], the “Ratio of ketone to alcohol” value is 0.42, the “Thermal decomposition product: Alcohol” value is 0.60 mols per 1 mol of decomposed p and the “Thermal decomposition product: Ketone (Acetophenone is formed)” value is reported as 0.25 mols per 1 mol of decomposed p.

In the case of `CCCC(C)(C)OOC1(OC)CC(C)CC(C)(C)C1` (centres unmarked) [Example 12, 1-methoxy-1-(1,1-dimethylbutylperoxy)-3,3,5-trimethylcyclohexane], in data set [2], the Decomposition rate constant is recorded as 11.25 ×10^5 (1/sec) and the Half-life period stood at 1.71 h. Besides, in data set [3], the Solubility entry was “.circle”. In data set [4], the “Ratio of ketone to alcohol” value is 2.27, the “Thermal decomposition product: Alcohol” value is 0.30 mols per 1 mol of decomposed p and the “Thermal decomposition product: Ketone” value is given as 0.68 mols per 1 mol of decomposed p.

In the case of `CCC(C)(C)OOC1(OOC(C)(C)CC)CCCCC1` [compound 2, 1,1-bis(1,1-dimethylpropylperoxy)cyclohexane, reference compound], in data set [2], the Decomposition rate constant is recorded as 7.32 ×10^5 (1/sec) and the Half-life period stood at 2.63 h. Further, in data set [3], the Solubility result is “Δ”. For the same molecule, in data set [4], the “Ratio of ketone to alcohol” value stood at 2.81, the “Thermal decomposition product: Alcohol” value is given as 0.26 mols per 1 mol of decomposed p and the “Thermal decomposition product: Ketone” value was 0.73 mols per 1 mol of decomposed p.

In the case of `CCCC(C)(C)OOC1(OOC(C)(C)CCC)CCCCC1` [compound 3, 1,1-bis(1,1-dimethylbutylperoxy)cyclohexane, reference compound], in data set [2], the Decomposition rate constant is given as 7.48 ×10^5 (1/sec) and the Half-life period was found to be 2.57 h. The Solubility entry in data set [3] was “Δ”. In addition, in data set [4], the “Ratio of ketone to alcohol” value is 1.28, the “Thermal decomposition product: Alcohol” value is 0.65 mols per 1 mol of decomposed p and the “Thermal decomposition product: Ketone” value was 0.83 mols per 1 mol of decomposed p.

On to `CC(C)(C)CC(C)(C)OOC1(OOC(C)(C)CC(C)(C)C)CCCCC1` [compound 4, 1,1-bis(1,1,3,3-tetramethylbutylperoxy)cyclohexane, reference compound], for which, in data set [2], the Decomposition rate constant is listed as 19.83 ×10^5 (1/sec) and the Half-life period is 0.97 h. Further, in data set [3], the Solubility result was “X”. Further, in data set [4], the “Ratio of ketone to alcohol” value is 1.21, the “Thermal decomposition product: Alcohol” value is recorded as 0.24 mols per 1 mol of decomposed p and the “Thermal decomposition product: Ketone” value was 0.29 mols per 1 mol of decomposed p.

For `CC(C)(OOC1(OOC(C)(C)c2ccccc2)CCCCC1)c1ccccc1` [compound 5, 1,1-bis(1-methyl-1-phenylethylperoxy)cyclohexane, reference compound], in data set [2], the Decomposition rate constant is listed as 8.24 ×10^5 (1/sec) and the Half-life period amounted to 2.34 h. In addition, in data set [3], the Solubility entry is reported as “.circle”. Besides, in data set [4], the “Ratio of ketone to alcohol” value is listed as 0.41, the “Thermal decomposition product: Alcohol” value is recorded as 1.00 mols per 1 mol of decomposed p and the “Thermal decomposition product: Ketone (Acetophenone is formed)” value was 0.41 mols per 1 mol of decomposed p.

On to `CCCC(C)(C)OOC1(OOC(C)(C)CCC)CC(C)CC(C)(C)C1` (centres unmarked) [compound 6, 1,1-bis(1,1-dimethylbutylperoxy)-3,3,5-trimethylcyclohexane, reference compound], for which, in data set [2], the Decomposition rate constant is reported as 7.50 ×10^5 (1/sec) and the Half-life period was determined as 2.57 h. The Solubility result in data set [3] was “Δ”. In data set [4], the “Ratio of ketone to alcohol” value is 1.25, the “Thermal decomposition product: Alcohol” value is recorded as 0.64 mols per 1 mol of decomposed p and the “Thermal decomposition product: Ketone” value is recorded as 0.80 mols per 1 mol of decomposed p.

For the molecule `CC(C)(C)OOC(=O)c1ccccc1` [compound 28, 1,1-dimethylethyl peroxybenzoate], the Solubility result in data set [3] is “.circle”.
